Counter-ions that a name gives are not always drawn.
What was measured:
[1] = tested on: HepG2 cells originating from human liver cancer; assay: EPO production in HepG2 cells (EPO ELISA of culture supernatant, 4% oxygen, 48 hrs); assay type: cell-based; conditions: test compound 3 μM, oxygen 4%, non-stimulated state = 100%, read-out: EPO production amount, % of control (3 μM)
Method: HepG2 cells originating from human liver cancer were seeded at a density of 1×10^4 cells per well on a 24-well plate by using minimum essential medium (MEM, manufactured by Sigma) comprising 10% bovine fetal serum. Next day, the medium was exchanged with Dulbecco's modified eagle medium (DMEM, manufactured by Sigma) comprising 10% bovine fetal serum lacking phenol red. Then, the test compound dissolved in DMSO was added thereto to obtain the final concentration of 3 μM or 10 μM while having 400 μl of the medium per well. The cells were incubated for 48 hrs in a CO2 incubator which had been adjusted to have oxygen concentration of 4%, followed by collecting the culture supernatant. The EPO concentration in the culture supernatant was immediately measured by using EPO ELISA kit (manufactured by Roche Diagnostics K.K.). Specific procedures were carried out according to the manufacturer's protocol included in the kit.
When EPO production amount in non-stimulated state, i.e., without addition of any compound, was 100%, the EPO production amount induced by each compound was calculated (% of control).

[2] = tested on: K562 cells, human proerythroblast cells; assay: Hemoglobin production in K562 cells (fluorescence of the porphyrin ring); assay type: cell-based; conditions: 144 h, test compound 6 μM, 3+3 days, non-stimulated state = 100%, read-out: production amount of hemoglobin, % of control (6 μM)
Summary of the method: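 K562 cells at 1×10^5 cells/mL in RPMI-1640 with 10% FBS, exposed to compound 3 days, medium exchanged, then 3 more days at 37 °C, 5% CO2. Hemoglobin from 3×10^5 cells measured as porphyrin fluorescence after boiling 30 min in 2 M oxalic acid; expressed as % of untreated control.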

`CC(=O)N1c2ccccc2C(Nc2ccc(N(C)C)cc2)CC1C` (stereo not shown) [Compound 20, 1-acetyl-4-[(4-N,N-dimethylaminophenyl)amino]-2-methyl-1,2,3,4-tetrahydroquinoline.2 hydrochloride] was tested. Which activity at 3 µM [1] did it give?
Its activity at 3 µM is 174%.

And the activity at 6 µM [2]?
Its activity at 6 µM is 117%.

What does the source list for `CC(=O)N1c2ccccc2C(Nc2ccc(C(C)C)cc2)CC1C` (stereo not shown) [Compound 21, 1-acetyl-4-[(4-isopropylphenyl)amino]-2-methyl-1,2,3,4-tetrahydroquinoline]?
activity at 3 µM [1]: 231%; activity at 6 µM [2]: 301%

Which results are given for `CC(=O)N1c2ccccc2C(Nc2ccc(CO)cc2)CC1C` (stereo not shown) [Compound 38, 1-acetyl-4-[(4-hydroxymethylphenyl)amino]-2-methyl-1,2,3,4-tetrahydroquinoline]?
activity at 3 µM [1]: 201%; activity at 6 µM [2]: 190%

How did the activity at 3 µM [1] turn out when `CC(=O)N1c2ccccc2C(Nc2ccc(NS(C)(=O)=O)cc2)CC1C` (stereo not shown) [Compound 39, 1-acetyl-4-[(4-methanesulfonylamidephenyl)amino]-2-methyl-1,2,3,4-tetrahydroquinoline] was run?
Its activity at 3 µM is 131%.

And the activity at 6 µM [2]?
Its activity at 6 µM is 327%.

For `CC(=O)N1c2ccc(N3CCOCC3)cc2C(Nc2ccc(Cl)cc2)CC1C` (stereo not shown) [Compound 40, 1-acetyl-4-[(4-chlorophenyl)amino]-2-methyl-6-morpholino-1,2,3,4-tetrahydroquinoline.hydrochloride], which activity at 3 µM [1] is on record?
The activity at 3 µM was 144%.

What about the activity at 6 µM [2] of the same compound?
Its activity at 6 µM is 256%.

Which results are given for `CC(=O)N1c2ccc(C(=O)O)cc2C(Nc2ccc(Cl)cc2)CC1C` (stereo not shown) [Compound 42, 1-acetyl-4-[(4-chlorophenyl)amino]-2-methyl-1,2,3,4-tetrahydroquinoline-6-carboxylic acid]?
activity at 3 µM [1]: 102%; activity at 6 µM [2]: 303%

Which activity at 3 µM [1] does the source give for `CC(=O)N1c2cc(N3CCOCC3)ccc2C(Nc2ccc(Cl)cc2)CC1C` (stereo not shown) [Compound 44, 1-acetyl-4-[(4-chlorophenyl)amino]-2-methyl-7-morpholino-1,2,3,4-tetrahydroquinoline] here?
Its activity at 3 µM is 301%.

And the activity at 6 µM [2]?
Its activity at 6 µM is 162%.

With `CC(=O)N1c2ccc(NS(C)(=O)=O)cc2C(Nc2ccc(Cl)cc2)CC1C` (stereo not shown) [Compound 45, 1-acetyl-4-[(4-chlorophenyl)amino]-2-methyl-6-methanesulfonylamino-1,2,3,4-tetrahydroquinoline] as the compound, how does the activity at 3 µM [1] read?
The activity at 3 µM was 286%.

What about the activity at 6 µM [2] of the same compound?
The activity at 6 µM was 387%.

With `CC(=O)N1c2ccccc2C(N(C)c2ccccc2)CC1C` (stereo not shown) [Compound 46, 1-acetyl-4-(N-methyl-N-phenylamino)-2-methyl-1,2,3,4-tetrahydroquinoline] as the compound, how does the activity at 3 µM [1] read?
The activity at 3 µM was 391%.

And the activity at 6 µM [2]?
The activity at 6 µM was 326%.

How did the activity at 3 µM [1] turn out when `CC1CC(Nc2ccccc2)c2ccccc2N1C(=O)C1CC1` (stereo not shown) [Compound 47, 1-cyclopropanecarbonyl-2-methyl-4-phenylamino-1,2,3,4-tetrahydroquinoline] was run?
Its activity at 3 µM is 292%.

What about the activity at 6 µM [2] of the same compound?
Its activity at 6 µM is 701%.

For `CCOC(=O)c1ccc2c(c1)C(Oc1ccc(F)cc1)CC(C)N2C(C)=O` (stereo not shown) [Compound 53, ethyl 1-acetyl-4-(4-fluorophenoxy)-2-methyl-1,2,3,4-tetrahydroquinoline-6-carboxylate], which activity at 3 µM [1] is on record?
The activity at 3 µM was 134%.

What about the activity at 6 µM [2] of the same compound?
Its activity at 6 µM is 307%.

`CNC(=O)N1c2ccc(F)cc2C(Nc2ccc(F)cc2)CC1C` (stereo not shown) [Compound 65, 6-fluoro-4-[(4-fluorophenyl)amino]-2-methyl-1-N-methylcarbamoyl-1,2,3,4-tetrahydroquinoline] was tested. Which activity at 3 µM [1] did it give?
The activity at 3 µM was 414%.

And the activity at 6 µM [2]?
The activity at 6 µM was 461%.

What does the source list for `COCc1ccc(NC2CC(C)N(C(C)=O)c3ccccc32)cc1` (stereo not shown) [Compound 69, 1-acetyl-4-[(4-methoxymethylphenyl)amino]-2-methyl-1,2,3,4-tetrahydroquinoline]?
activity at 3 µM [1]: 150%; activity at 6 µM [2]: 407%

Which results are given for `CC(=O)N1c2ccccc2C(Nc2ccc(CC(=O)O)cc2)CC1C` (stereo not shown) [Compound 71, 1-acetyl-4-[(4-carboxymethylphenyl)amino]-2-methyl-1,2,3,4-tetrahydroquinoline]?
activity at 3 µM [1]: 149%; activity at 6 µM [2]: 150%

Which activity at 3 µM [1] does the source give for `CC(=O)N1c2ccccc2C(Nc2ccccc2N2CCOCC2)CC1C` (stereo not shown) [Compound 72, 1-acetyl-2-methyl-4-[(2-morpholinophenyl)amino]-1,2,3,4-tetrahydroquinoline] here?
Its activity at 3 µM is 243%.

And the activity at 6 µM [2]?
The activity at 6 µM was 577%.

With `CC(=O)N1c2ccc(Br)cc2C(Nc2ccc(Cl)cc2)CC1C` (stereo not shown) [Compound 74, 1-acetyl-6-bromo-4-[(4-chlorophenyl)amino]-2-methyl-1,2,3,4-tetrahydroquinoline] as the compound, how does the activity at 3 µM [1] read?
Its activity at 3 µM is 398%.

What about the activity at 6 µM [2] of the same compound?
The activity at 6 µM was 375%.

How did the activity at 3 µM [1] turn out when `CC(=O)N1c2ccccc2C(Nc2ccc(CC(N)=O)cc2)CC1C` (stereo not shown) [Compound 75, 1-acetyl-4-[(4-carbamoylmethylphenyl)amino]-2-methyl-1,2,3,4-tetrahydroquinoline] was run?
Its activity at 3 µM is 346%.

What about the activity at 6 µM [2] of the same compound?
Its activity at 6 µM is 282%.

`CC(=O)N1c2ccccc2C(Nc2ccc(N3CCNCC3)cc2)CC1C` (stereo not shown) [Compound 76, 1-acetyl-2-methyl-4-[(4-piperazinylphenyl)amino]-1,2,3,4-tetrahydroquinoline] was tested. Which activity at 3 µM [1] did it give?
The activity at 3 µM was 227%.

And the activity at 6 µM [2]?
Its activity at 6 µM is 185%.

For `CC(=O)N1c2ccc(N3CCN(C(=O)C4CCCCC4)CC3)cc2C(Nc2ccc(Cl)cc2)CC1C` (stereo not shown) [Compound 85, 1-acetyl-4-[(4-chlorophenyl)amino]-6-[(4-cyclohexylcarbonyl)piperazino]-2-methyl-1,2,3,4-tetrahydroquinoline], which activity at 3 µM [1] is on record?
Its activity at 3 µM is 147%.

And the activity at 6 µM [2]?
The activity at 6 µM was 189%.

For `CC(=O)N1c2ccc(C(N)=O)cc2C(Nc2ccc(N3CCOCC3)cc2)CC1C` (stereo not shown) [Compound 92, 1-acetyl-2-methyl-4-[(4-morpholinophenyl)amino]-1,2,3,4-tetrahydroquinoline-6-carboxamide], which activity at 3 µM [1] is on record?
The activity at 3 µM was 192%.

What about the activity at 6 µM [2] of the same compound?
The activity at 6 µM was 128%.

For `CC(=O)N1c2ccc(N)cc2C(Nc2ccc(Cl)cc2)CC1C` (stereo not shown) [Compound 95, 1-acetyl-6-amino-4-[(4-chlorophenyl)amino]-2-methyl-1,2,3,4-tetrahydroquinoline], which activity at 3 µM [1] is on record?
Its activity at 3 µM is 213%.

What about the activity at 6 µM [2] of the same compound?
The activity at 6 µM was 158%.

Which activity at 3 µM [1] does the source give for `CCOC(=O)Nc1ccc2c(c1)C(Nc1ccc(Cl)cc1)CC(C)N2C(C)=O` (stereo not shown) [Compound 97, 1-acetyl-4-[(4-chlorophenyl)amino]-2-methyl-1,2,3,4-tetrahydroquinoline-6-ethylcarbamate] here?
The activity at 3 µM was 264%.

And the activity at 6 µM [2]?
Its activity at 6 µM is 553%.

`CCOC(=O)c1ccc2c(c1)C(Nc1ccc(CC#N)cc1)CC(C)N2C(C)=O` (stereo not shown) [Compound 103, ethyl 1-acetyl-4-[(4-cyanomethylphenyl)amino]-2-methyl-1,2,3,4-tetrahydroquinoline-6-carboxylate] was tested. Which activity at 3 µM [1] did it give?
The activity at 3 µM was 108%.

What about the activity at 6 µM [2] of the same compound?
The activity at 6 µM was 485%.

For `CC(=O)N1c2ccc(C(N)=O)cc2C(Nc2ccc(CC#N)cc2)CC1C` (stereo not shown) [Compound 104, 1-acetyl-4-[(4-cyanomethylphenyl)amino]-2-methyl-1,2,3,4-tetrahydroquinoline-6-carboxamide], which activity at 3 µM [1] is on record?
Its activity at 3 µM is 204%.

And the activity at 6 µM [2]?
Its activity at 6 µM is 536%.

With `CC(=O)N1c2cc(NS(C)(=O)=O)ccc2C(Nc2ccc(Cl)cc2)CC1C` (stereo not shown) [Compound 107, 1-acetyl-4-[(4-chlorophenyl)amino]-7-methanesulfonylamino-2-methyl-1,2,3,4-tetrahydroquinoline.hydrochloride] as the compound, how does the activity at 3 µM [1] read?
The activity at 3 µM was 130%.

What about the activity at 6 µM [2] of the same compound?
The activity at 6 µM was 139%.

With `CC(=O)N1c2ccc(N3CCN(C(=O)C(C)C)CC3)cc2C(Nc2ccc(NS(C)(=O)=O)cc2)CC1C` (stereo not shown) [Compound 111, 1-acetyl-6-[(4-isopropylcarbonyl)piperazino]-4-[(4-methanesulfonylaminophenyl)amino]-2-methyl-1,2,3,4-tetrahydroquinoline] as the compound, how does the activity at 3 µM [1] read?
The activity at 3 µM was 126%.

What about the activity at 6 µM [2] of the same compound?
Its activity at 6 µM is 46%.

Which activity at 3 µM [1] does the source give for `CC(=O)N1c2ccc(C(=O)N(C)C)cc2C(Nc2ccc(Cl)cc2)CC1C` (stereo not shown) [Compound 113, 1-acetyl-4-[(4-chlorophenyl)amino]-N,N,2-trimethyl-1,2,3,4-tetrahydroquinoline-6-carboxamide] here?
Its activity at 3 µM is 112%.

And the activity at 6 µM [2]?
The activity at 6 µM was 163%.

Which activity at 3 µM [1] does the source give for `CNC(=O)c1ccc2c(c1)C(Nc1ccc(Cl)cc1)CC(C)N2C(C)=O` (stereo not shown) [Compound 114, 1-acetyl-4-[(4-chlorophenyl)amino]-N,2-dimethyl-1,2,3,4-tetrahydroquinoline-6-carboxamide] here?
The activity at 3 µM was 198%.

What about the activity at 6 µM [2] of the same compound?
Its activity at 6 µM is 152%.

How did the activity at 3 µM [1] turn out when `CC(=O)N1c2ccc(-c3nnn[nH]3)cc2C(Nc2ccc(Cl)cc2)CC1C` (stereo not shown) [Compound 119, 1-acetyl-4-[(4-chlorophenyl)amino]-2-methyl-6-(1H-tetrazol-5-yl)-1,2,3,4-tetrahydroquinoline] was run?
Its activity at 3 µM is 125%.

And the activity at 6 µM [2]?
Its activity at 6 µM is 124%.

How did the activity at 3 µM [1] turn out when `CCOC(=O)Cc1ccc(NC2CC(C)N(C(C)=O)c3ccc(F)cc32)cc1` (stereo not shown) [Compound 122, 1-acetyl-4-[(4-ethoxycarbonylmethylphenyl)amino]-6-fluoro-2-methyl-1,2,3,4-tetrahydroquinoline] was run?
Its activity at 3 µM is 139%.

And the activity at 6 µM [2]?
The activity at 6 µM was 213%.

For `CC(=O)N1c2ccc(F)cc2C(Nc2ccc(CC(N)=O)cc2)CC1C` (stereo not shown) [Compound 124, 1-acetyl-4-[(4-carbamoylmethylphenyl)amino]-6-fluoro-2-methyl-1,2,3,4-tetrahydroquinoline], which activity at 3 µM [1] is on record?
Its activity at 3 µM is 147%.

What about the activity at 6 µM [2] of the same compound?
Its activity at 6 µM is 119%.

Which results are given for `CC(=O)N1c2ccc(F)cc2C(Nc2ccc(CC(=O)N(C)C)cc2)CC1C` (stereo not shown) [Compound 125, 1-acetyl-4-[4-(N,N-dimethylaminocarbonylmethyl)phenylamino]-6-fluoro-2-methyl-1,2,3,4-tetrahydroquinoline]?
activity at 3 µM [1]: 148%; activity at 6 µM [2]: 118%

— patent US20130172345A1, “1-ACYL-4-(PHENOXY, BENZYLOXY, OR PHENYLAMINO)-1,2,3,4-TETRAHYDROQUINOLINE DERIVATIVES” (KOWA COMPANY, LTD., priority 2007, published 2013)
